# Patent US9624254B2, “Hydroxysafflor yellow pharmaceutical salts” (ZHEJIANG YONGNING PHARMACEUTICAL CO LTD, priority 2013, dated 2017)
# “And” between values parts separate entries of the source, which are not always exact repeats. Identical values can stand only once. Like-named read-outs stand apart in the source and are kept apart here.
# Key:
# [1] = system: acute myocardial infarction among rats; test: Rat acute myocardial infarction model (coronary ligature): arrhythmia ranking, infarcted area, myocardial enzymes; type: in vivo
# Protocol: Test method • 1. Preparation of rat acute myocardial infarction model: Intraperitoneal anesthesia was performed with 3% sodium pentobarbital, 45 mg/kg. Right femoral artery and vein catheter were inserted for blood pressure monitoring and intravenous administration, respectively. Artificial mechanical ventilation was given through tracheal intubation at a rate of 60 times/min, and with a ventilation volume of about 10 ml/kg. Electrocardiogram (ECG) was recorded by placing needle electrode in limbs. A longitudinal skin incision was made approximately 0.5 cm to left sternal border, followed by blunt dissection of the subcutaneous tissue. The pectoralis major, pectoralis minor, and the intercostal muscle were dissected, ligated and cut with scissors successively. The chest was open from the fourth intercostal space along the left sternal border where apical beat is most significant. Cut the pericardium open with scissors, and clamp the pericardium to bilateral chest wall with hemostatic forceps, to form a pericardial bed and expose vessels on the surface of the left ventricle. 6-0 silk suture was threaded through superficial layer of myocardium (i.e. the anterior descending coronary artery) about 2 mm under the left auricle. […] Arrhythmia ranking: The severity of arrhythmia which occurred within 30 min after coronary ligature was scored. • 3. Myocardial enzyme test: At the end of test, 2 ml of venous blood was taken, and centrifuged under 4° C. and 4000/min for 5 min. The supernatant was taken for myocardial enzyme test. Test items: LDH, AKP, CK. • 4. Measurement of myocardial infarcted area: 4 h after coronary ligature, puncture was performed to the anterior wall of the left ventricle, and carbon ink was injected. Then the animal was sacrificed, and the heart was removed and cleaned with normal saline. Blood and non-myocardial tissue such as vessel and fat were removed. Moisture was dried with absorbent paper. Then the heart was weighed. The heart was cut into sections of about 2 mm from cardiac apex to the base of heart parallel. The perfusion area (perfused with ink) and area at high risk of ischemia (without ink perfusion). […] The nonobstructive heart muscle stained was cut off with scissors, and the non-stained infarcted heart muscle was weighed, to calculate percentage of infarcted heart muscle in the area of heart muscle at risk by weight (weight of infarction area/weight of area at risk*100%). Statistical Analysis:
# All the test data was expressed as mean±standard deviation, statistical test was done with analysis of variance (ANOVA), and the difference was considered significant if P<0.05.
# [2] = system: Willis arteries from beagles (cerebral vascular ring); parameters: species or system dog
# From the text: (§1) 1. Selectivity of isolated heart and cerebral vessel from dogs: During this study, Willis arteries and coronary ring from beagles were mounted on ex vivo vascular measuring device. Adjust the tension sensor, and add 10-6 mol/L phenylephrine into the liquid in bath cup, so as to maintain vascular tension. […] Calculate vasoconstriction or vasodilation change value.
# [3] = system: coronary ring from beagles (cardiac vascular ring); parameters: species or system dog
# From the text: as §1
# [4] = system: acute cerebral ischemia model (MCAO); type: in vivo, rat
# [5] = system: permeability of cerebral vessel; type: in vivo, rat
# Protocol: 3. Effect on vasopermeability in rats: Rats were injected intravenously, once per day, for 7 days. After the last dose, rats were anesthetized, injected intravenously with Evans blue 50 mg/kg. After 5 minutes, bilateral common carotid arteries were ligated. The animals were sacrificed by decapitation after 3 hours. The brain was removed, weighed and immersed in formamide solution. It was placed in an incubator at 45° C. for 72 h. During this period, Evans blue in the cerebral vessel could be leached out into formamide solution. Testing the amount of Evans blue leached out into the formamide solution with spectrophotometer could indicate permeability of cerebral vessel.
# [6] = system: cerebral blood flow; type: in vivo, dog
# From the text: 4. Effect on cerebral blood flow of dog: Beagles were used as the study animal. After the dog was anesthetized with sodium pentobarbital, external jugular vein, internal jugular vein and vertebral artery were isolated surgically. The external jugular vein was ligated. Flow probes were placed in internal jugular vein and vertebral artery. Two times of the total blood flow recorded by both probes represented blood supply of the whole brain. At the end of the study, the brain was removed and weighed to calculate blood flow per 100 g of brain tissue.
# [7] = system: acute hypoxia; test: Acute cerebral anoxia, survival in a closed vessel; type: in vivo, mouse; settings: Kunming mice
# Protocol: 5. Effect on acute cerebral anoxia: A study was carried out using Kunming mice […]. The animals were kept in an environment lacking oxygen. The survival duration was recorded to examine whether resistance to acute hypoxia was increased after animals given the medicine. […] Animals were kept in the container until respiration ceased.
# [8] = system: platelet adhered to the silk; type: in vivo, rat
# Protocol: (§2) 6. Anti-platelet aggregation: The study included two stages, instrument testing and in vivo test. […] 4 ml of blood was taken from heart 2 hours after the last dose. The blood was centrifuged under a low speed to obtain platelet-rich […]; and centrifuged under a high speed to obtain […] lacking platelet. Adenosine diphosphate (ADP) and platelet-activating factor (PAF) were chosen as the platelet aggregation inducing agent. And platelet aggregometer was used for testing. […] 2) In vivo method: An arteriovenous short was created with latex tubing in rats. There was surgical silk mounted in the latex tubing. Using characteristics of platelet adhesion, the short was opened to allow blood to flow trans-arteriovenously through the latex tubing. And then silk was removed and weighed. The weight of platelet adhered to the silk was calculated by subtracting the dry weight.
# [9] = system: blood viscosity; type: in vivo; settings: rabbit
# Protocol: 7. Effect on blood viscosity: Rabbit was treated intravenously, once per day, for 5 days. 2 hours after the last dose, blood was taken from heart and anticoagulated, and tested with blood rheometer directly.
# [10] = type: physicochemical; settings: for Content: calculated as hydroxysafflor yellow A
# [11] = system: platelet aggregation induced by ADP; test: Anti-platelet aggregation, instrument testing (platelet aggregometer), ADP; type: in vivo; settings: rabbit, intravenous once per day for 5 days, blood 2 hours after last dose, three doses
# Protocol: as §2
# [12] = system: platelet aggregation induced by PAF; test: Anti-platelet aggregation, instrument testing (platelet aggregometer), PAF; type: in vivo; settings: rabbit, intravenous once per day for 5 days, blood 2 hours after last dose, three doses
# Protocol: as §2
# [13] = serum, rats, 40 mg/kg intravenously, end of test
# [14] = 10-6 mol/L phenylephrine tension, 10 mg/ml added every 5 min, 4-5 times
# [15] = beagles, intravenous, medium and high dose
compound,measurement,setting,value
O=C(/C=C/c1ccc(O)cc1)C1=C(O)C(O)(C2OC(CO)C(O)C(O)C2O)C([O][Ca][O]C2=C(C3OC(CO)C(O)C(O)C3O)C(=O)C(C(=O)/C=C/c3ccc(O)cc3)=C(O)C2(O)C2OC(CO)C(O)C(O)C2O)=C(C2OC(CO)C(O)C(O)C2O)C1=O (centres unmarked) [Calcium hydroxysafflor yellow A],Extent of myocardial infarction compared to hydroxysafflor yellow for injection (in words),"[1]; rat, in vivo",better efficacy in terms of reducing the extent of myocardial infarction
same,Effect on serum LDH and CK (in words),"[1]; rat, in vivo, iv",more significant efficacy
same,Effect on severity of arrhythmia (in words),"[1]; rat, in vivo, iv",more effective
same,AKP (IU/L),"[1]; rat, in vivo, iv, 40 mg/kg",152 ± 24 IU/L
same,Arrhythmia ranking,"[1]; rat, in vivo, iv, 40 mg/kg",1.46 ± 0.3
same,CK (IU/L),"[1]; rat, in vivo, iv, 40 mg/kg",2139 ± 594 IU/L
same,Infarction area,"[1]; rat, in vivo, iv, 40 mg/kg",0.11 ± 0.04 g
same,Infarction rate (%),"[1]; rat, in vivo, iv, 40 mg/kg",29 ± 6 %
same,LDH (IU/L),"[1]; rat, in vivo, iv, 40 mg/kg",463 ± 65 IU/L
same,Dilation on cerebral vascular ring,[2],69.7%
same,Dilation on cardiac vascular ring,[3],37.1%
same,Area of cerebral infarction,"[4]; rat, in vivo, iv",41.3% and 25.7% and 21.6%
same,Evans blue leached out from cerebral vessel (in words),"[5]; rat, in vivo, iv",very significant effect of reducing Evans blue being leached out from cerebral vessel
same,Cerebral blood flow (in words),"[6]; dog, in vivo, iv",significantly increase blood flow
same,Time for which blood flow was maintained,"[6]; dog, in vivo, iv",about 15 min
same,Survival duration,[7]; high dose,37 min
same,Survival duration,[7]; low dose,35 min
same,Survival duration,[7]; medium dose,38 min
same,Weight of platelet adhered on the silk,"[8]; rat, in vivo",13.9 ± 1.54 mg and 10.26 ± 1.15 mg and 8.73 ± 1.79 mg
same,Blood viscosity effect compared with nimodipine positive control (in words),[9]; in vivo,superior to the positive control group
same,"Blood viscosity, low shear, medium shear and high shear (in words)","[9]; in vivo, iv",decreased as dose increased
same,Total purity,[10]; Accelerated 0 month,1.2%
same,Total purity,[10]; Accelerated 1 month,1.4%
same,Content,[10]; Accelerated 1 month,95.6%
same,Total purity,[10]; Accelerated 2 months,1.9%
same,Content,[10]; Accelerated 2 months,95.1%
same,Total purity,[10]; Accelerated 3 months,2.6%
same,Content,[10]; Accelerated 3 months,94.5%
O=C(/C=C/c1ccc(O)cc1)C1=C(O)C(O)(C2OC(CO)C(O)C(O)C2O)C([O][Mg][O]C2=C(C3OC(CO)C(O)C(O)C3O)C(=O)C(C(=O)/C=C/c3ccc(O)cc3)=C(O)C2(O)C2OC(CO)C(O)C(O)C2O)=C(C2OC(CO)C(O)C(O)C2O)C1=O (centres unmarked) [Magnesium hydroxysafflor yellow A],Total purity,[10]; Accelerated 0 month,1.0%
same,Content,[10]; Accelerated 0 month,97.4%
same,Total purity,[10]; Accelerated 1 month,1.3%
same,Content,[10]; Accelerated 1 month,97.0%
same,Total purity,[10]; Accelerated 2 months,1.8%
same,Content,[10]; Accelerated 2 months,96.4%
same,Total purity,[10]; Accelerated 3 months,2.4%
same,Content,[10]; Accelerated 3 months,95.8%
"COCCOC(=O)C1=C(C)NC(C)=C(C(=O)OC(C)C)C1c1cccc([N+](=O)[O-])c1 (centres unmarked) [nimodipine, reference compound]",Area of cerebral infarction,"[4]; SD rats, positive group, 24 h after MCAO",15.7%
Potassium hydroxysafflor yellow A,Extent of myocardial infarction compared to hydroxysafflor yellow for injection (in words),[1]; rats,better efficacy in terms of reducing the extent of myocardial infarction
same,Infarction area,"[1]; rats, 40 mg/kg intravenously, 4 h after coronary ligature, NBT staining, mean±SD",0.10 ± 0.02 g
same,Infarction rate (%),"[1]; rats, 40 mg/kg intravenously, weight of infarction area/weight of area at risk*100%",26 ± 9 %
same,Arrhythmia ranking,"[1]; rats, 40 mg/kg intravenously, within 30 min after coronary ligature, mean±SD, n=8",1.38 ± 0.5
same,Effect on serum LDH and CK (in words),"[1]; rats, given intravenously",more significant efficacy
same,Effect on severity of arrhythmia (in words),"[1]; rats, given intravenously, after coronary ligature",more effective
same,AKP (IU/L),[1]; [13],144 ± 19 IU/L
same,CK (IU/L),[1]; [13],2203 ± 530 IU/L
same,LDH (IU/L),[1]; [13],451 ± 78 IU/L
same,Dilation on cerebral vascular ring,[2]; [14],73.1%
same,Dilation on cardiac vascular ring,[3]; [14],31.6%
same,Area of cerebral infarction,"[4]; rat, in vivo, iv",38.2% and 27.6% and 21.9%
same,Evans blue leached out from cerebral vessel (in words),"[5]; rats, intravenous once per day for 7 days, high and medium dose groups",very significant effect of reducing Evans blue being leached out from cerebral vessel
same,Cerebral blood flow (in words),[6]; [15],significantly increase blood flow
same,Time for which blood flow was maintained,[6]; [15],about 15 min
same,Survival duration,[7]; high dose,36 min
same,Survival duration,[7]; low dose,36 min
same,Survival duration,[7]; medium dose,37 min
same,Effect against platelet aggregation induced by ADP (in words),[11],very good anti-platelet aggregation effect
same,Effect against platelet aggregation induced by PAF (in words),[12],very good anti-platelet aggregation effect
same,Weight of platelet adhered on the silk,"[8]; rats, arteriovenous short, high dose",8.91 ± 1.34 mg
same,Weight of platelet adhered on the silk,"[8]; rats, arteriovenous short, low dose",13.6 ± 1.89 mg
same,Weight of platelet adhered on the silk,"[8]; rats, arteriovenous short, medium dose",9.90 ± 1.53 mg
same,Blood viscosity effect compared with nimodipine positive control (in words),[9]; high dose groups,superior to the positive control group
same,"Blood viscosity, low shear, medium shear and high shear (in words)","[9]; intravenous once per day for 5 days, compared to solvent control group",decreased as dose increased
